Assays:
Format in all cases: in vivo
[1] = tested on: barnyardgrass (Echinochloa crus-galli); experiment: Test A pre-/postemergence plant response
Method in brief: (§1)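 Visually rated 0–100 injury (100 = complete control) versus untreated plants, ~10 days in greenhouse. Application pre- (soil spray, loam/sand) and postemergence (2–10 cm, 1–2 leaf stage), same timepoint.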

corn (Zea mays) = experiment: Test A pre-/postemergence plant response
Method in brief: as §1

[2] = tested on: giant foxtail (Setaria faberii); experiment: Test A pre-/postemergence plant response
Method in brief: as §1

[3] = tested on: large crabgrass (Digitaria sanguinalis); experiment: Test A pre-/postemergence plant response
Method in brief: as §1

[4] = tested on: morningglory (Ipomoea spp.); experiment: Test A pre-/postemergence plant response
Method in brief: as §1

[5] = tested on: pigweed (Amaranthus retroflexus); experiment: Test A pre-/postemergence plant response
Method in brief: as §1

[6] = tested on: velvetleaf (Abutilon theophrasti); experiment: Test A pre-/postemergence plant response
Method in brief: as §1

[7] = tested on: wheat (Triticum aestivum); experiment: Test A pre-/postemergence plant response
Method in brief: as §1

[8] = tested on: canarygrass (Phalaris minor); experiment: Test B postemergence plant response
Method in brief: (§2)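 Plants grown in peat/vermiculite medium were sprayed postemergence at 2–18 cm height (1- to 4-leaf stage). After 13–15 days in the greenhouse, response was rated visually against untreated controls on a 0–100 scale (0 no effect, 100 complete control).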

[9] = tested on: chickweed (Stellaria media); experiment: Test B postemergence plant response
Method in brief: as §2

[10] = tested on: windgrass (Apera spica-venti); experiment: Test B postemergence plant response
Method in brief: as §2

[11] = tested on: ducksalad (Heteranthera limosa); experiment: Test B flooded paddy test; conditions: for Plant response rating, Flood, Ducksalad: 250 g ai/ha, flooded paddy test, visual rating on 0 to 100 scale (0 no effect, 100 complete control) after 13 to 15 days; for Plant response rating, Ducksalad: Flood (flooded paddy test), 13 to 15 days
Method in brief: (§3)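 Plants were grown to the 2-leaf stage, then pots were flooded to 3 cm above the soil and compounds were applied directly into the paddy water. That depth was held throughout. After 13 to 15 days in a greenhouse, injury was visually rated against controls on a 0–100 scale.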

rice (Oryza sativa) = experiment: Test B flooded paddy test; conditions: for Plant response rating, Flood, Rice: 250 g ai/ha, flooded paddy test, visual rating on 0 to 100 scale (0 no effect, 100 complete control) after 13 to 15 days; for Plant response rating, Rice: Flood (flooded paddy test), 13 to 15 days
Method in brief: as §3

[12] = Postemergence, 125 g ai/ha, visual injury, 0 to 100 scale (0 no effect, 100 complete control), approx. ten days
[13] = Postemergence, 500 g ai/ha, 0 to 100 scale, 0 = no effect, 100 = complete control, approx. ten days
[14] = Preemergence, 125 g ai/ha, 0 to 100 scale, 0 = no effect, 100 = complete control
[15] = Preemergence, 500 g ai/ha, visual injury, 0 to 100 scale (0 no effect, 100 complete control), approx. ten days
[16] = 31 g ai/ha, postemergence, scale 0 to 100, 0 is no effect, 100 is complete control
[17] = Postemergence, 62 g ai/ha, scale 0 (no effect) to 100 (complete control), 13 to 15 days
[18] = Postemergence, 125 g ai/ha, visual rating after 13 to 15 days, scale 0 (no effect) to 100 (complete control)
[19] = Postemergence, 250 g ai/ha, scale 0 to 100 (0 no effect, 100 complete control)
[20] = 31 g ai/ha, scale of 0 to 100 where 0 is no effect and 100 is complete control
[21] = 62 g ai/ha, scale of 0 to 100 where 0 is no effect and 100 is complete control
[22] = 125 g ai/ha, scale 0 to 100, 0 is no effect, 100 is complete control
[23] = 62 g ai/ha, postemergence, 0 is no effect, 100 is complete control, 13 to 15 days
[24] = Flood, 31 g ai/ha, scale 0 to 100 (0 no effect, 100 complete control)

Which “Barnyardgrass plant response rating” value [1, 12] does the source give for `O=C1CCCC(O)=C1C(=O)c1cnc(-c2ccccc2)n(CC2CCCO2)c1=O` (stereo not drawn) [Compound 59] here?
The value was 90.

And the “Plant response rating, Barnyardgrass” value [1, 13]?
The value was 90.

What about the “Plant response rating, Barnyardgrass” value [1, 14] of the same compound?
The value was 40.

And the “Plant response rating, Barnyardgrass” value [1, 15]?
Its value is 90.

What about the “Corn plant response rating” value (corn (Zea mays); [12]) of the same compound?
The value was 10.

What about the “Plant response rating, Corn” value (corn (Zea mays); [13]) of the same compound?
The value was 30.

What about the “Plant response rating, Corn” value (corn (Zea mays); [14]) of the same compound?
The value was 0.

And the “Plant response rating, Corn” value (corn (Zea mays); [15])?
Its value is 0.

What about the “Foxtail, Giant plant response rating” value [2, 12] of the same compound?
The value was 80.

What about the “Plant response rating, Foxtail, Giant” value [2, 13] of the same compound?
The value was 90.

And the “Plant response rating, Foxtail, Giant” value [2, 14]?
The value was 50.

What about the “Plant response rating, Foxtail, Giant” value [2, 15] of the same compound?
The value was 80.

And the “Crabgrass, Large plant response rating” value [3, 12]?
The value was 90.

And the “Plant response rating, Crabgrass, Large” value [3, 13]?
Its value is 100.

What about the “Plant response rating, Crabgrass, Large” value [3, 14] of the same compound?
Its value is 90.

What about the “Plant response rating, Crabgrass, Large” value [3, 15] of the same compound?
The value was 100.

And the “Morningglory plant response rating” value [4, 12]?
Its value is 100.

What about the “Plant response rating, Morningglory” value [4, 13] of the same compound?
Its value is 100.

What about the “Plant response rating, Morningglory” value [4, 15] of the same compound?
Its value is 90.

And the “Pigweed plant response rating” value [5, 12]?
The value was 100.

And the “Plant response rating, Pigweed” value [5, 13]?
Its value is 100.

What about the “Plant response rating, Pigweed” value [5, 14] of the same compound?
The value was 90.

And the “Plant response rating, Pigweed” value [5, 15]?
The value was 100.

What about the “Velvetleaf plant response rating” value [6, 12] of the same compound?
The value was 100.

What about the “Plant response rating, Velvetleaf” value [6, 13] of the same compound?
Its value is 100.

And the “Plant response rating, Velvetleaf” value [6, 14]?
Its value is 100.

And the “Plant response rating, Velvetleaf” value [6, 15]?
Its value is 100.

And the “Wheat plant response rating” value [7, 12]?
Its value is 0.

What about the “Plant response rating, Wheat” value [7, 13] of the same compound?
The value was 10.

What about the “Plant response rating, Wheat” value [7, 14] of the same compound?
Its value is 0.

What about the “Plant response rating, Wheat” value [7, 15] of the same compound?
Its value is 0.

What about the “Plant response rating, Canarygrass” value [8, 16] of the same compound?
Its value is 5.

And the “Plant response rating, Canarygrass” value [8, 17]?
Its value is 5.

And the “Plant response rating, Canarygrass” value [8, 18]?
The value was 50.

What about the “Plant response rating, Canarygrass” value [8, 19] of the same compound?
Its value is 70.

What about the “Plant response rating, Chickweed” value [9, 16] of the same compound?
The value was 85.

And the “Plant response rating, Chickweed” value [9, 17]?
Its value is 98.

And the “Plant response rating, Chickweed” value [9, 18]?
Its value is 98.

And the “Plant response rating, Chickweed” value [9, 19]?
The value was 100.

And the “Plant response rating, Windgrass” value [10, 16]?
Its value is 20.

And the “Plant response rating, Windgrass” value [10, 17]?
The value was 60.

And the “Plant response rating, Windgrass” value [10, 18]?
Its value is 60.

What about the “Plant response rating, Windgrass” value [10, 19] of the same compound?
Its value is 70.

And the “Plant response rating, Flood, Ducksalad” value [11]?
The value was 40.

What about the “Plant response rating, Ducksalad” value [11, 20] of the same compound?
Its value is 0.

And the “Plant response rating, Ducksalad” value [11, 21]?
Its value is 0.

And the “Plant response rating, Ducksalad” value [11, 22]?
Its value is 0.

What about the “Plant response rating, Flood, Rice” value (rice (Oryza sativa)) of the same compound?
The value was 15.

And the “Plant response rating, Rice” value (rice (Oryza sativa); [20])?
The value was 0.

What about the “Plant response rating, Rice” value (rice (Oryza sativa); [21]) of the same compound?
Its value is 15.

What about the “Plant response rating, Rice” value (rice (Oryza sativa); [22]) of the same compound?
The value was 15.

For `O=C1CCCC(O)=C1C(=O)c1cnc(-c2ccccc2Br)n(-c2ccccc2)c1=O` [Compound 71], which “Barnyardgrass plant response rating” value [1, 12] is on record?
The value was 0.

What about the “Plant response rating, Barnyardgrass” value [1, 13] of the same compound?
Its value is 60.

And the “Plant response rating, Barnyardgrass” value [1, 14]?
Its value is 0.

And the “Plant response rating, Barnyardgrass” value [1, 15]?
The value was 0.

What about the “Corn plant response rating” value (corn (Zea mays); [12]) of the same compound?
The value was 0.

What about the “Plant response rating, Corn” value (corn (Zea mays); [13]) of the same compound?
Its value is 20.

And the “Plant response rating, Corn” value (corn (Zea mays); [14])?
The value was 0.

What about the “Plant response rating, Corn” value (corn (Zea mays); [15]) of the same compound?
Its value is 0.

And the “Foxtail, Giant plant response rating” value [2, 12]?
The value was 20.

What about the “Plant response rating, Foxtail, Giant” value [2, 13] of the same compound?
Its value is 60.

What about the “Plant response rating, Foxtail, Giant” value [2, 14] of the same compound?
Its value is 0.

What about the “Plant response rating, Foxtail, Giant” value [2, 15] of the same compound?
Its value is 10.

And the “Crabgrass, Large plant response rating” value [3, 12]?
Its value is 30.

What about the “Plant response rating, Crabgrass, Large” value [3, 13] of the same compound?
Its value is 80.

And the “Plant response rating, Crabgrass, Large” value [3, 14]?
The value was 10.

What about the “Plant response rating, Crabgrass, Large” value [3, 15] of the same compound?
The value was 50.

And the “Morningglory plant response rating” value [4, 12]?
Its value is 80.

And the “Plant response rating, Morningglory” value [4, 13]?
The value was 100.

What about the “Plant response rating, Morningglory” value [4, 14] of the same compound?
The value was 0.

And the “Plant response rating, Morningglory” value [4, 15]?
The value was 0.

And the “Pigweed plant response rating” value [5, 12]?
The value was 70.

What about the “Plant response rating, Pigweed” value [5, 13] of the same compound?
Its value is 100.

And the “Plant response rating, Pigweed” value [5, 15]?
Its value is 90.

And the “Velvetleaf plant response rating” value [6, 12]?
The value was 100.

And the “Plant response rating, Velvetleaf” value [6, 13]?
The value was 100.

What about the “Plant response rating, Velvetleaf” value [6, 14] of the same compound?
The value was 50.

What about the “Plant response rating, Velvetleaf” value [6, 15] of the same compound?
The value was 70.

What about the “Wheat plant response rating” value [7, 12] of the same compound?
The value was 0.

What about the “Plant response rating, Wheat” value [7, 13] of the same compound?
The value was 0.

What about the “Plant response rating, Wheat” value [7, 14] of the same compound?
The value was 0.

What about the “Plant response rating, Wheat” value [7, 15] of the same compound?
Its value is 0.

And the “Plant response rating, Canarygrass” value [8, 16]?
The value was 0.

And the “Canarygrass plant response rating (0 to 100 scale)” value [8, 23]?
The value was 5.

What about the “Plant response rating, Canarygrass” value [8, 18] of the same compound?
Its value is 5.

What about the “Plant response rating, Canarygrass” value [8, 19] of the same compound?
Its value is 20.

And the “Plant response rating, Chickweed” value [9, 16]?
The value was 75.

What about the “Chickweed plant response rating (0 to 100 scale)” value [9, 23] of the same compound?
The value was 90.

What about the “Plant response rating, Chickweed” value [9, 18] of the same compound?
The value was 95.

And the “Plant response rating, Chickweed” value [9, 19]?
The value was 98.

And the “Plant response rating, Windgrass” value [10, 16]?
Its value is 5.

And the “Windgrass plant response rating (0 to 100 scale)” value [10, 23]?
Its value is 10.

What about the “Plant response rating, Windgrass” value [10, 18] of the same compound?
The value was 45.

What about the “Plant response rating, Windgrass” value [10, 19] of the same compound?
The value was 60.

And the “Plant response rating, Flood, Ducksalad” value [11]?
Its value is 0.

And the “Plant response rating, Ducksalad” value [11, 21]?
The value was 0.

And the “Plant response rating, Ducksalad” value [11, 22]?
The value was 0.

And the “Ducksalad plant response rating” value [11, 24]?
Its value is 0.

And the “Plant response rating, Flood, Rice” value (rice (Oryza sativa))?
The value was 0.

What about the “Plant response rating, Rice” value (rice (Oryza sativa); [21]) of the same compound?
The value was 0.

And the “Plant response rating, Rice” value (rice (Oryza sativa); [22])?
Its value is 0.

And the “Rice plant response rating” value (rice (Oryza sativa); [24])?
Its value is 0.

— patent publication US8952024B2, “Herbicidal pyrimidone derivatives” (E I du Pont de Nemours and Company, priority 2009, dated 2015)
